Reference: ChEMBL document CHEMBL2380264, “Synthesis and antitumor activity of 1,3,4-oxadiazole possessing 1,4-benzodioxan moiety as a novel class of potent methionine aminopeptidase type II inhibitors” (Bioorg Med Chem Lett, 2013)

Key:
HUVEC [1] = assay: Antiproliferative against HUVEC after 48 hrs by MTT assay; conditions: Homo sapiens
[2] = Cytotoxicity against HUVEC after 24 hrs by MTT assay; assay type: cell-based; conditions: human, HUVEC cells
HUVEC [3] = assay: Induction of apoptosis in HUVEC assessed as late apoptotic cells at 2 uM after 24 hrs by annexin V-FITC/propidium iodide staining-based FACS flow cytometric analysis (reference value: 0.09%); assay type: functional, Homo sapiens
HUVEC [4] = assay: Induction of apoptosis in HUVEC assessed as late apoptotic cells at 1 uM after 24 hrs by annexin V-FITC/propidium iodide staining-based FACS flow cytometric analysis (reference value: 0.09%); assay type: functional, Homo sapiens
HUVEC [5] = assay: Induction of apoptosis in HUVEC assessed as late apoptotic cells at 4 uM after 24 hrs by annexin V-FITC/propidium iodide staining-based FACS flow cytometric analysis (reference value: 0.09%); assay type: functional, Homo sapiens
HUVEC [6] = assay: Induction of apoptosis in HUVEC assessed as late apoptotic cells at 0.5 uM after 24 hrs by annexin V-FITC/propidium iodide staining-based FACS flow cytometric analysis (reference value: 0.09%); assay type: functional, Homo sapiens
HUVEC [7] = assay: Induction of apoptosis in HUVEC assessed as early apoptotic cells at 4 uM after 24 hrs by annexin V-FITC/propidium iodide staining-based FACS flow cytometric analysis (reference value: 0.02%); assay type: functional, Homo sapiens
HUVEC [8] = assay: Induction of apoptosis in HUVEC assessed as viable cells at 1 uM after 24 hrs by annexin V-FITC/propidium iodide staining-based FACS flow cytometric analysis (reference value: 96.26%); assay type: functional; conditions: Homo sapiens, read-out: Activity
HUVEC [9] = assay: Induction of apoptosis in HUVEC assessed as early apoptotic cells at 2 uM after 24 hrs by annexin V-FITC/propidium iodide staining-based FACS flow cytometric analysis (reference value: 0.02%); assay type: functional, Homo sapiens
HUVEC [10] = assay: Induction of apoptosis in HUVEC assessed as viable cells at 2 uM after 24 hrs by annexin V-FITC/propidium iodide staining-based FACS flow cytometric analysis (reference value: 96.26%); assay type: functional; conditions: Homo sapiens, read-out: Activity
HUVEC [11] = assay: Induction of apoptosis in HUVEC assessed as dead cells at 1 uM after 24 hrs by annexin V-FITC/propidium iodide staining-based FACS flow cytometric analysis (reference value: 2.82%); assay type: functional, Homo sapiens
HUVEC [12] = assay: Induction of apoptosis in HUVEC assessed as viable cells at 4 uM after 24 hrs by annexin V-FITC/propidium iodide staining-based FACS flow cytometric analysis (reference value: 96.26%); assay type: functional; conditions: Homo sapiens, read-out: Activity
HUVEC [13] = assay: Induction of apoptosis in HUVEC assessed as dead cells at 4 uM after 24 hrs by annexin V-FITC/propidium iodide staining-based FACS flow cytometric analysis (reference value: 2.82%); assay type: functional, Homo sapiens
HUVEC [14] = assay: Induction of apoptosis in HUVEC assessed as early apoptotic cells at 0.5 uM after 24 hrs by annexin V-FITC/propidium iodide staining-based FACS flow cytometric analysis (reference value: 0.02%); assay type: functional, Homo sapiens
HUVEC [15] = assay: Induction of apoptosis in HUVEC assessed as dead cells at 2 uM after 24 hrs by annexin V-FITC/propidium iodide staining-based FACS flow cytometric analysis (reference value: 2.82%); assay type: functional, Homo sapiens
HUVEC [16] = assay: Induction of apoptosis in HUVEC assessed as early apoptotic cells at 1 uM after 24 hrs by annexin V-FITC/propidium iodide staining-based FACS flow cytometric analysis (reference value: 0.02%); assay type: functional, Homo sapiens
HUVEC [17] = assay: Induction of apoptosis in HUVEC assessed as dead cells at 0.5 uM after 24 hrs by annexin V-FITC/propidium iodide staining-based FACS flow cytometric analysis (reference value: 2.82%); assay type: functional, Homo sapiens
HUVEC [18] = assay: Induction of apoptosis in HUVEC assessed as viable cells at 0.5 uM after 24 hrs by annexin V-FITC/propidium iodide staining-based FACS flow cytometric analysis (reference value: 96.26%); assay type: functional; conditions: Homo sapiens, read-out: Activity
HUVEC [19] = assay: Induction of apoptosis in HUVEC after 24 hrs by annexin V-FITC/propidium iodide staining-based FACS flow cytometric analysis; assay type: functional, cell-based; conditions: Homo sapiens
[20] = target: Methionine aminopeptidase 2 (Homo sapiens, UniProt P50579); assay: Inhibition of MetAP2 (unknown origin) after 4 hrs
Chain of Methionine aminopeptidase 2 (P50579 whole entry): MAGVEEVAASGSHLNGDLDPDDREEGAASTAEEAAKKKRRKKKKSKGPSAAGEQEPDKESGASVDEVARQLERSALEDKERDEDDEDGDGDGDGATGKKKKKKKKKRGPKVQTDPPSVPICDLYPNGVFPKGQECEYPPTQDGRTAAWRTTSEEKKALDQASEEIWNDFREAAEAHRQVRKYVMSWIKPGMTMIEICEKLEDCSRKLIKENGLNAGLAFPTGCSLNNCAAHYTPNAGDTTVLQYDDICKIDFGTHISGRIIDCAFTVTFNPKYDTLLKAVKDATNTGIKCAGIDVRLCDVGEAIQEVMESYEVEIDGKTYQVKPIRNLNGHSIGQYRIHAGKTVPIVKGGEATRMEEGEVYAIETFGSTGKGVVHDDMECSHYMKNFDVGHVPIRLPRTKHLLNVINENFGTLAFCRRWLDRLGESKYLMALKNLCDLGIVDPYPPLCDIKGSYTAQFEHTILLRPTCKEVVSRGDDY

Row | SMILES | IC50 (HUVEC [1]) | CC50 at 24 h [2] | further results
1 | Brc1cccc(/C=C/c2nnc(-c3ccc4c(c3)OCCO4)o2)c1 | 13.5 µM | 322 µM | –
2 | Fc1ccc(/C=C/c2nnc(-c3ccc4c(c3)OCCO4)o2)cc1 | 4.96 µM | 325 µM | –
3 | O=[N+]([O-])c1ccccc1/C=C/c1nnc(-c2ccc3c(c2)OCCO3)o1 | 25 µM | 323 µM | –
4 | Cc1ccccc1/C=C/c1nnc(-c2ccc3c(c2)OCCO3)o1 | 40.5 µM | 356 µM | –
5 | Cc1ccc(/C=C/c2nnc(-c3ccc4c(c3)OCCO4)o2)cc1 | 45.2 µM | 265 µM | –
6 | Brc1ccc(/C=C/c2nnc(-c3ccc4c(c3)OCCO4)o2)cc1 | 22.3 µM | 491 µM | –
7 | Clc1ccc(/C=C/c2nnc(-c3ccc4c(c3)OCCO4)o2)cc1 | 8.03 µM | 312 µM | –
8 | Clc1ccccc1/C=C/c1nnc(-c2ccc3c(c2)OCCO3)o1 | 7.71 µM | 368 µM | –
9 | Fc1ccccc1/C=C/c1nnc(-c2ccc3c(c2)OCCO3)o1 | 1.16 µM | 402 µM | Activity (HUVEC [3]): 16.4%; Activity (HUVEC [4]): 14.01%; Activity (HUVEC [5]): 25.61%; Activity (HUVEC [6]): 5.22%; Activity (HUVEC [7]): 8.64%; viability at 1 µM (HUVEC [8]): 56.6%; Activity (HUVEC [9]): 3.01%; viability at 2 µM (HUVEC [10]): 49.3%; Activity (HUVEC [11]): 26.68%; viability at 4 µM (HUVEC [12]): 39.5%; Activity (HUVEC [13]): 26.23%; Activity (HUVEC [14]): 1.07%; Activity (HUVEC [15]): 31.26%; Activity (HUVEC [16]): 2.69%; Activity (HUVEC [17]): 30.26%; viability at 0.5 µM (HUVEC [18]): 63.5%; Activity (HUVEC [19]): Dose-dependent effect
10 | O=[N+]([O-])c1cccc(/C=C/c2nnc(-c3ccc4c(c3)OCCO4)o2)c1 | 30.1 µM | 309 µM | –
11 | COc1ccc(/C=C/c2nnc(-c3ccc4c(c3)OCCO4)o2)cc1 | > 50 µM | 312 µM | –
12 | Cc1cccc(/C=C/c2nnc(-c3ccc4c(c3)OCCO4)o2)c1 | 40.6 µM | 201 µM | –
13 | NNC(=O)c1ccc2c(c1)OCCO2 | > 50 µM | 200 µM | –
14 | COc1cccc(/C=C/c2nnc(-c3ccc4c(c3)OCCO4)o2)c1 | > 50 µM | 332 µM | –
15 | Fc1cccc(/C=C/c2nnc(-c3ccc4c(c3)OCCO4)o2)c1 | 3.53 µM | 295 µM | –
16 | O=[N+]([O-])c1ccc(/C=C/c2nnc(-c3ccc4c(c3)OCCO4)o2)cc1 | 32.1 µM | 299 µM | –
17 | C(=C\c1nnc(-c2ccc3c(c2)OCCO3)o1)/c1ccccc1 | > 50 µM | 209 µM | –
18 | Brc1ccccc1/C=C/c1nnc(-c2ccc3c(c2)OCCO3)o1 | 8.89 µM | 287 µM | –
19 | CO[C@@H]1[C@H](OC(=O)NC(=O)CCl)CC[C@]2(CO2)[C@H]1[C@@]1(C)O[C@@H]1CC=C(C)C [O-CHLOROACETYLCARBAMOYLFUMAGILLOL] | 1.96 µM | – | IC50 [20]: 1.32 µM
